{"source": "patent US20050119124A1", "about": "“Phosphorus and potassium fertilizer for all forms of perennial trees, vines and annual crops” (priority 1999, published 2005)", "origin": "cited, not measured here", "settings": "18C"}
{"smiles": "OP(O)O", "note": "[Phosphorous acid, phosphorous acid]", "values": [{"measurement": "pK, first acid group", "value": 2.00}, {"measurement": "pK, second acid group", "value": 6.59}]}
